Experimental findings from ChEMBL document CHEMBL2203000, “Discovery of AC710, a Globally Selective Inhibitor of Platelet-Derived Growth Factor Receptor-Family Kinases” (ACS Med Chem Lett, 2012) are described below.

Series [1] can be described thus: Aqueous solubility of the compound in water. It counts as physicochemical.
For the next series, the target named is Cytochrome P450 2D6 (Homo sapiens, UniProt P10635). The series can be described thus: Inhibition of CYP2D6. It counts as ADME.
Series [2] can be described thus: Clearance in Sprague-Dawley rat plasma at 1 mg/kg, iv and 10 mg/kg, po by LC-MS/MS analysis. It counts as ADME, organism-based.
For series [3], the system named is Rattus norvegicus. The series can be described thus: Toxicity in rat assessed as diarrhea at 800 mg/kg administered for 7 days. Format: organism-based. Further details: dose 800 mg/kg. The conditions noted are these: in vivo, 168 h.
For series [4], the system named is Rattus norvegicus. Description: Toxicity in rat at 200 mg/kg administered for 7 days. It counts as organism-based. Particulars: in vivo, 168 h. Further details: dose 200 mg/kg.
Series [5] can be described thus: Antitumor activity against mouse M-NFS-60 cells xenografted in CD-1 nude mouse assessed as inhibition of tumor growth at 30 mg/kg, po measured after 4 of tumor implantation. It counts as functional. The conditions noted are these: read-out: TGI.
Series [6] in a line: Oral bioavailability in Sprague-Dawley rat plasma at 10 mg/kg by LC-MS/MS analysis. The conditions noted are these: Sprague-Dawley, plasma. Format: ADME, organism-based.
Series [7] concerns the target T1, Mast/stem cell growth factor receptor Kit (Homo sapiens, UniProt P10721). Description: Inhibition of KIT phosphorylation in human H526 cells. It counts as cell-based.
Series [8] deals with T1, Mast/stem cell growth factor receptor Kit. Description: Binding affinity to KIT expressed in HEK-293 cells. It counts as cell-based, HEK293.
The next series addresses Cytochrome P450 2C19 (Homo sapiens, UniProt P33261). Description: Inhibition of CYP2C19. It counts as ADME.
The nature of series [9]: Antitumor activity against mouse M-NFS-60 cells xenografted in CD-1 nude mouse assessed as inhibition of tumor growth at 10 mg/kg, po measured after 4 of tumor implantation. Format: functional. Particulars: read-out: TGI.
A further series deals with T2, Cytochrome P450 1A2 (Homo sapiens, UniProt P05177).
T2 sequence (P05177 whole entry): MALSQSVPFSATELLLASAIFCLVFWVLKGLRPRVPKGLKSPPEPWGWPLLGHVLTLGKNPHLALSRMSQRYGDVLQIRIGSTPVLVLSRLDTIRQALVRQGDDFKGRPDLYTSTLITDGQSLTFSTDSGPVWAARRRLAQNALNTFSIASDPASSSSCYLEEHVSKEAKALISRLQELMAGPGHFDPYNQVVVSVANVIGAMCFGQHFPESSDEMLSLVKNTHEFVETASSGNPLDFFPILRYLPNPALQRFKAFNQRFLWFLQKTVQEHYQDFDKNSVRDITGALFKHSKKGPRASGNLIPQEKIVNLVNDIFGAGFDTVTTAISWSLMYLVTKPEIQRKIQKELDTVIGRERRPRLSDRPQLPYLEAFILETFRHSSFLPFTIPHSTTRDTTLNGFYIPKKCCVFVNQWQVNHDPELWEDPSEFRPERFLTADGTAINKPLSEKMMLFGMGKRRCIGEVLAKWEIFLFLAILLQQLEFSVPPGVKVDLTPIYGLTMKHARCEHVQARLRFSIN
Description: Inhibition of CYP1A2. It counts as ADME.

Series [10] can be described thus: Antitumor activity against mouse M-NFS-60 cells xenografted in CD-1 nude mouse assessed as inhibition of tumor growth at 100 mg/kg, po measured after 4 of tumor implantation. Format: functional. Particulars: read-out: TGI.
The target of another series is Cytochrome P450 2C9 (Homo sapiens, UniProt P11712). The series can be described thus: Inhibition of CYP2C9. It counts as ADME.
Chain of Cytochrome P450 2C9 (P11712 whole entry): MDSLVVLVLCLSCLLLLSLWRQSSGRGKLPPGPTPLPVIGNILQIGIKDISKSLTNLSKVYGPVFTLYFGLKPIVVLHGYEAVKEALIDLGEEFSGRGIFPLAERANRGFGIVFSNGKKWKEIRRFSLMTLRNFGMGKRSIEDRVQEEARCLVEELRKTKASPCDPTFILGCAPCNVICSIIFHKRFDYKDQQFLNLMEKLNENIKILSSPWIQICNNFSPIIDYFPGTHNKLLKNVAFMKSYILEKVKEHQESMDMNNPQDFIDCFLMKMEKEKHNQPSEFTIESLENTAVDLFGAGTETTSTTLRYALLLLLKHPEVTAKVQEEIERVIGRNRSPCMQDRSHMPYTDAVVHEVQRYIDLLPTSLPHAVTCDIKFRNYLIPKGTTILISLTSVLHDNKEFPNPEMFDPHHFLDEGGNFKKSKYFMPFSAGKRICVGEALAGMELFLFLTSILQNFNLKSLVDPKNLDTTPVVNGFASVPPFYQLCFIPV
The nature of series [11]: AUC in Sprague-Dawley rat plasma at 10 mg/kg, po by LC-MS/MS analysis. It counts as ADME, organism-based. The arrangement: dose 10 mg/kg, route oral. The conditions noted are these: Sprague-Dawley, plasma.
Series [12] in a line: AUC in po dosed CD-1 mouse by LC-MS/MS analysis. It counts as ADME, organism-based. Particulars: plasma.
In a further series the target is Cytochrome P450 3A4 (Homo sapiens, UniProt P08684). The series can be described thus: Inhibition of CYP3A4. It counts as ADME.
Chain of Cytochrome P450 3A4 (P08684 whole entry): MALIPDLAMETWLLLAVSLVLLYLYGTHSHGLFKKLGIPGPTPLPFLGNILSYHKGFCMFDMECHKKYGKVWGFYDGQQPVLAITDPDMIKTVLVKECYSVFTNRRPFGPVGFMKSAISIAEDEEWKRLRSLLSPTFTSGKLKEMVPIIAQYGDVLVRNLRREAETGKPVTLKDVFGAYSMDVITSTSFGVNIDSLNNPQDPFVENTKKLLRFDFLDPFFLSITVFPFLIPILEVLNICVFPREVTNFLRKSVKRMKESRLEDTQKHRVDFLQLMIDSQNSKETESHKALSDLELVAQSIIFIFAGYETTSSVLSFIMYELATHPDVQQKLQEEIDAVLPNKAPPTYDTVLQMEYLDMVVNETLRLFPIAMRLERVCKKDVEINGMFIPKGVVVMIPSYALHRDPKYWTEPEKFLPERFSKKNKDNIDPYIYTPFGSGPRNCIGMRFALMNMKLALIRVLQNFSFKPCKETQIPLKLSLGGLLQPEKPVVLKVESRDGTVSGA
Series [13] in a line: Aqueous solubility of the compound at pH 2 to 7.4. The conditions noted are these: buffer. Format: physicochemical.
Series [14] concerns Rattus norvegicus. The series can be described thus: Toxicity in rat assessed as mortality at 800 mg/kg administered for 7 days. It counts as organism-based. The arrangement: dose 800 mg/kg. Particulars: in vivo, 168 h.
Series [15] deals with Rattus norvegicus. Description: Toxicity in rat assessed as effect on body weight at 800 mg/kg administered for 7 days. It counts as organism-based. The arrangement: dose 800 mg/kg. Particulars: in vivo, 168 h.
Another series has as its system NFS-60. The series can be described thus: Antitumor activity against mouse M-NFS-60 cells xenografted in CD-1 nude mouse assessed as inhibition of tumor growth measured after 4 days of tumor implantation. Format: functional, cell-based.
Series [16] relates to Mus musculus. The series can be described thus: Antiarthritic activity in collagen-induced arthritis mouse assessed as decrease in joint swelling and inflammation at 10 to 30 mg/kg, po for 15 days. Format: functional, organism-based.
Series [17] deals with MV4-11. Description: Antitumor activity against human MV4-11 cells xenografted in SCID mouse assessed as reduction in tumor volume at 0.3 mg/kg for 2 weeks. Format: functional, organism-based. Further details: dose 0.3 mg/kg. Background: Xenograft models place foreign cells or tissue in a host animal.
Series [18] has as its system Mus musculus. Description: Antiarthritic activity in po dosed collagen-induced arthritis mouse assessed as decrease in paw clinical scores administered for 15 days. It counts as functional, organism-based.
The test system of series [19] is MV4-11. Description: Antitumor activity against human MV4-11 cells xenografted in SCID mouse assessed as complete reduction in tumor volume at 3 to 30 mg/kg for 2 weeks. It counts as functional, organism-based.

The source made the active and inactive calls. The calls are words filed in the database; no cut-off is given here. Some results are limits rather than exact numbers.

T1 sequence (P10721 whole entry): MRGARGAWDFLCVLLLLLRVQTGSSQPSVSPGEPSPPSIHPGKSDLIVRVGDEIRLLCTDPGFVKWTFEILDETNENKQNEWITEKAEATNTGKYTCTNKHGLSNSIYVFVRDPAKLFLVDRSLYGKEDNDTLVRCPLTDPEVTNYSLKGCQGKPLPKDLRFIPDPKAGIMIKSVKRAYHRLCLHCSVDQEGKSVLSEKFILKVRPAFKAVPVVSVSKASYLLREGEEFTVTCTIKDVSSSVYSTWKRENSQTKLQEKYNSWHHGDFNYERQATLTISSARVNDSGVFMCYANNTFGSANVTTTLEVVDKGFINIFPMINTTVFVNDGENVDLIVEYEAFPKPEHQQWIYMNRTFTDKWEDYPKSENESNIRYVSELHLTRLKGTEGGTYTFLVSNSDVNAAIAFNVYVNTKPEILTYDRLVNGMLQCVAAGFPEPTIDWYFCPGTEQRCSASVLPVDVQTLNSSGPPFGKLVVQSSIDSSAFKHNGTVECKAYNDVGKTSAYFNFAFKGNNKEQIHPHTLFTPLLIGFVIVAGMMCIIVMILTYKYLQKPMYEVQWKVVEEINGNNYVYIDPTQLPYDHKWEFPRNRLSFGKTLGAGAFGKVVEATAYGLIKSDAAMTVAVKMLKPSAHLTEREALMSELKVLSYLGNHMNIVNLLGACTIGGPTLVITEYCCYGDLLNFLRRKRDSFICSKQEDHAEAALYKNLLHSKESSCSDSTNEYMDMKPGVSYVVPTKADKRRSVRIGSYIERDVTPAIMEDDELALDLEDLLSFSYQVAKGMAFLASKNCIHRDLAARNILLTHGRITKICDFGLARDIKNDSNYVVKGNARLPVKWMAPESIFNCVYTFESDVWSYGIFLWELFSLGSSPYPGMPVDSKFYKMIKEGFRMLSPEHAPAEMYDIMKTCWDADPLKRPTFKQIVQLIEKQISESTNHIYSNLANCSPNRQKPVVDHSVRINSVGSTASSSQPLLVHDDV
Chain of Cytochrome P450 2C19 (P33261 whole entry): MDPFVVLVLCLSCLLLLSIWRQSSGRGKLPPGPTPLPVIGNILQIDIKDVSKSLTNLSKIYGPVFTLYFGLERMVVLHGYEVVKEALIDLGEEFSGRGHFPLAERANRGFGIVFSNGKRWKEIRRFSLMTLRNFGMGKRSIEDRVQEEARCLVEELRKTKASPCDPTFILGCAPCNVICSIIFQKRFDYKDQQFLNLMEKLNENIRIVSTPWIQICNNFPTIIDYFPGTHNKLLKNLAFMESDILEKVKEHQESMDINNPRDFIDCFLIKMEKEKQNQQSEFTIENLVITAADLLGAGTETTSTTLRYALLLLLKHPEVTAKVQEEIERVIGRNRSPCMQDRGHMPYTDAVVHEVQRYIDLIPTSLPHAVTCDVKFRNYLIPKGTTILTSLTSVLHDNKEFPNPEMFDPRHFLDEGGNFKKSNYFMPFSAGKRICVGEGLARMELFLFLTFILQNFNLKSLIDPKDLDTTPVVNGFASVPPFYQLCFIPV
Chain of Cytochrome P450 2D6 (P10635 whole entry): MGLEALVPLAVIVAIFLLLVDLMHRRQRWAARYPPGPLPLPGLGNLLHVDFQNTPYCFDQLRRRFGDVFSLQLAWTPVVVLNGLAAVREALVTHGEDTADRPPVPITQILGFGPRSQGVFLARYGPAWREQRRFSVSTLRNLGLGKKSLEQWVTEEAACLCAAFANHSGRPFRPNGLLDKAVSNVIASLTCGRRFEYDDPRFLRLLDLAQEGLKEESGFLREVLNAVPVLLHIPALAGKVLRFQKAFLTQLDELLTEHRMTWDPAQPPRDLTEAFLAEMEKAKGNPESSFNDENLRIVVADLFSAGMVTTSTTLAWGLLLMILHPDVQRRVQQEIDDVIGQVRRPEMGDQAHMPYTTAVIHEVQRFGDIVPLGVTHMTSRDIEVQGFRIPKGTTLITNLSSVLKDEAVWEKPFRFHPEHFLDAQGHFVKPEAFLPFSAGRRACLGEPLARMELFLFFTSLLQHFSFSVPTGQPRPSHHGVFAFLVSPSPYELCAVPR

On to `CCN1C(C)(C)CC(Oc2ccc(C(=O)Nc3ccc(NC(=O)Nc4cc(C(C)(C)C)on4)cc3)nc2)CC1(C)C.CS(=O)(=O)O`, for which the solubility in series [1] is > 1000 µg/mL.
On to `CCN1CCC(Oc2ccc(C(=O)Nc3ccc(NC(=O)Nc4cc(C(C)(C)C)on4)cc3)nc2)CC1` [listing 1 of 2 here], for which the IC50 is > 40 µM at Cytochrome P450 2D6; 0.0079 µM in [7]; > 40 µM at Cytochrome P450 2C19; > 40 µM on Cytochrome P450 1A2; > 40 µM against Cytochrome P450 2C9; > 40 µM on Cytochrome P450 3A4. The compound also showed a clearance in [2] of 25.8 mL/min/kg. Moreover, the Activity entry is given as “Toxic” in the series on Rattus norvegicus [3] and “Non-toxic” with Rattus norvegicus [4]. In addition, the inhibition in vivo at 30 mg/kg in [5] is 46%. In series [6], this compound had a bioavailability of 20%. For the same compound, the Kd in series [8] amounted to 0.0006 µM. Further, in series [9], the inhibition in vivo at 10 mg/kg is 31%. For the same compound, the inhibition in vivo at 100 mg/kg in series [10] stood at 73%. Besides, the AUC turned out to be 4.8 µM·h in [11] and 9.9 µM·h in series [12].
As for `CC(C)(C)c1cc(NC(=O)Nc2ccc(NC(=O)c3cc4ccccc4cn3)cc2)no1`, the clearance in series [2] stood at 47 mL/min/kg. Besides, in [13], the solubility was < 5 µg/mL. Further, the bioavailability in series [6] is 9%. In series [11], the AUC stood at 0.8 µM·h.
Regarding `CN1C(C)(C)CC(Oc2ccc(C(=O)Nc3ccc(NC(=O)Nc4cc(C(C)(C)C)on4)cc3)nc2)CC1(C)C` [listing 1 of 2 here], the Activity result with Rattus norvegicus [14] is reported as “Toxic”; in the series on Rattus norvegicus [3] it was “Toxic”; in the series with Rattus norvegicus [4], “Non-toxic”; in the series on Rattus norvegicus [15] it was “Toxic”. Moreover, the IC50 was > 40 µM against Cytochrome P450 2D6; 0.008 µM in [7]; > 40 µM against Cytochrome P450 2C19; > 40 µM at Cytochrome P450 1A2; > 40 µM on Cytochrome P450 2C9; > 40 µM against Cytochrome P450 3A4. Further, in series [2], the clearance amounted to 10.9 mL/min/kg. For the same compound, the inhibition in vivo at 30 mg/kg in series [5] is 82%. Also, the bioavailability in series [6] turned out to be 31.5%. In addition, the Kd in [8] came to 0.0011 µM. Further, the inhibition in vivo at 100 mg/kg in series [10] was 92%. For the same compound, the AUC in series [11] came out at 9.1 µM·h; in series [12] it was 65.8 µM·h.
`CC(C)N1CCC(Oc2ccc(C(=O)Nc3ccc(NC(=O)Nc4cc(C(C)(C)C)on4)cc3)nc2)CC1` gave a clearance in series [2] of 16 mL/min/kg. Moreover, the bioavailability in series [6] was 17.5%. This compound came in with an AUC in series [11] of 3.5 µM·h.
For `CCN1CCC(c2ccc(C(=O)Nc3ccc(NC(=O)Nc4cc(C(C)(C)C)on4)cc3)nc2)CC1`, in that order: 37.6 mL/min/kg, 9.9% and 0.9 µM·h.
In the case of `Cc1ccnc(C(=O)Nc2ccc(NC(=O)Nc3cc(C(C)(C)C)on3)cc2)c1`, in series [2], the clearance came to 37.9 mL/min/kg. The bioavailability in series [6] stood at 4%. Also, the AUC in [11] turned out to be 0.5 µM·h.
For `CC1(C)CC(Oc2ccc(C(=O)Nc3ccc(NC(=O)Nc4cc(C(C)(C)C)on4)cc3)nc2)CC(C)(C)N1`, in that order: 11 mL/min/kg, 8% and 2.4 µM·h.
In the case of `CCN1CCC(Oc2ccc(C(=O)Nc3ccc(NC(=O)Nc4cc(C(C)(C)C)on4)cc3)nc2)CC1` [listing 2 of 2 here], the inhibition entry with NFS-60 is “Dose-dependent effect”.
In the case of `CCN1C(C)(C)CC(Oc2ccc(C(=O)Nc3ccc(NC(=O)Nc4cc(C(C)(C)C)on4)cc3)nc2)CC1(C)C`, in the series on NFS-60, the inhibition entry is “Dose-dependent effect”. The inhibition entry in the series on Mus musculus [16] and in the series with Mus musculus [18] was “Active” in each case. Moreover, the outcome in the series on MV4-11 [17] and in the series with MV4-11 [19] was Active.
For `CC(C)(C)c1cc(NC(=O)Nc2ccc(NC(=O)c3cc(OC4CCNCC4)ccn3)cc2)no1`, the clearance in [2] was determined as 35.8 mL/min/kg. In [6], this compound displayed a bioavailability of 3%. Also, the AUC in [11] is 0.4 µM·h.
For the compound `CC(C)(C)c1cc(NC(=O)Nc2ccc(NC(=O)c3ccc(OC4CCN(C(C)(C)C)CC4)cn3)cc2)no1`, in series [2], the clearance stood at 15 mL/min/kg. In addition, in series [6], the bioavailability worked out at 22%. The compound also came in with an AUC in series [11] of 5 µM·h.
In the case of `CN1C(C)(C)CC(Oc2ccc(C(=O)Nc3ccc(NC(=O)Nc4cc(C(C)(C)C)on4)cc3)nc2)CC1(C)C.CS(=O)(=O)O`, the solubility in series [1] was > 1000 µg/mL.
Same read-out and setting: then `CCN1CCC(Oc2ccc(C(=O)Nc3ccc(NC(=O)Nc4cc(C(C)(C)C)on4)cc3)nc2)CC1.CS(=O)(=O)O`, with 1130 µg/mL.
`CCN1CCC(Cc2ccc(C(=O)Nc3ccc(NC(=O)Nc4cc(C(C)(C)C)on4)cc3)nc2)CC1`: the clearance in series [2] stood at 24 mL/min/kg. Also, the bioavailability in [6] was found to be 12%. This compound also yielded an AUC in series [11] of 1.4 µM·h.
Compound `CC(C)(C)c1cc(NC(=O)Nc2ccc(NC(=O)c3ccc(OC4CCN(C5CC5)CC4)cn3)cc2)no1` registered a clearance in series [2] of 12 mL/min/kg. In [6], this compound gave a bioavailability of 36%. Also, in series [11], the AUC is 9.5 µM·h.
With `CN1C(C)(C)CC(Oc2ccc(C(=O)Nc3ccc(NC(=O)Nc4cc(C(C)(C)C)on4)cc3)nc2)CC1(C)C` [listing 2 of 2 here], the inhibition result in the series on NFS-60 was “Dose-dependent effect”.

One may read the solubility as the concentration that dissolves in the medium under given conditions. Low readings indicate a poorly soluble substance, high ones a readily soluble substance. What is called IC50 is the concentration that gives 50% inhibition. The bioavailability is dose-corrected exposure relative to a reference, in per cent. High values mean good availability, low ones poor availability. For orientation: Kd means the concentration at which binding is half-saturated. Low values mean a tighter complex, high ones a looser complex. The AUC is concentration integrated over time. A high value points to more exposure.
